Test results taken from ChEMBL document CHEMBL1201862, “PubChem BioAssay data set” (2004).
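Where inhibition never reached the appropriate level, the endpoint shown equals the highest concentration tested. Otherwise, values were interpolated linearly from a five-concentration, 48-hour dose response in 96-well plates. Here, GI50 denotes the concentration required for 50% inhibition of growth.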 The source made the active and inactive calls. Rule as the data show it: active = GI50 up to about 1.1 µM and inactive = higher.

Assays:
Assay in all cases: inhibition of tumour cell growth, NCI panel, 48 h
[1] = system: OVCAR-4
[2] = system: IGROV-1
[3] = system: NCI-H522
[4] = system: M14
[5] = system: CCRF-CEM
[6] = system: TK-10
[7] = system: LOX IMVI
[8] = system: OVCAR-5
[9] = system: OVCAR-8
[10] = system: UACC-257
[11] = system: ACHN
[12] = system: HL-60
[13] = system: NCI-H460
[14] = system: SF-295
[15] = system: 786-0
[16] = system: CAKI-1
[17] = system: DMS-273
[18] = system: DU-145
[19] = system: RPMI-8226
[20] = system: Hs-578T

Row | SMILES | GI50 [1] | GI50 [2] | GI50 [3] | GI50 [4] | GI50 [5] | GI50 [6] | GI50 [7] | GI50 [8] | GI50 [9] | GI50 [10] | GI50 [11] | GI50 [12] | GI50 [13] | GI50 [14] | GI50 [15] | GI50 [16] | GI50 [17] | GI50 [18] | GI50 [19] | GI50 [20]
1 | O=C(CC(O)(c1ccccc1)c1ccc(Cl)cc1)NC(=O)c1ccccc1O (centres undefined) | 5.74 µM (inactive) | 5.75 µM (inactive) | 3.16 µM (inactive) | 12.4 µM (inactive) | 4.41 µM (inactive) | 13.2 µM (inactive) | 9.2 µM (inactive) | 1.99 µM (inactive) | 4.54 µM (inactive) | 10.3 µM (inactive) | 4.49 µM (inactive) | 4.6 µM (inactive) | 4.37 µM (inactive) | 4.4 µM (inactive) | 10.5 µM (inactive) | 3.95 µM (inactive) | 13.2 µM (inactive) | – | – | –
2 | N=C(N)NS(=O)(=O)c1ccc(Nc2c3ccccc3nc3ccc(C(=O)Nc4ccc(S(N)(=O)=O)cc4)cc23)cc1 | > 100 µM (inactive) | > 100 µM (inactive) | > 100 µM (inactive) | > 100 µM (inactive) | > 100 µM (inactive) | > 100 µM (inactive) | > 100 µM (inactive) | > 100 µM (inactive) | > 100 µM (inactive) | > 100 µM (inactive) | > 100 µM (inactive) | > 100 µM (inactive) | > 100 µM (inactive) | > 100 µM (inactive) | > 100 µM (inactive) | > 100 µM (inactive) | – | > 100 µM (inactive) | > 100 µM (inactive) | > 100 µM (inactive)
3 | CN1CCC(OC(=O)Oc2ccccc2)(c2ccccc2)CC1 | 18.3 µM (inactive) | 21.1 µM (inactive) | 24 µM (inactive) | 15 µM (inactive) | 21.8 µM (inactive) | 19.1 µM (inactive) | 17.8 µM (inactive) | 25.4 µM (inactive) | 17.5 µM (inactive) | 19.7 µM (inactive) | 34.9 µM (inactive) | 16.5 µM (inactive) | 13.5 µM (inactive) | 24 µM (inactive) | > 100 µM (inactive) | 77.3 µM (inactive) | – | 47.1 µM (inactive) | 15.5 µM (inactive) | 28.5 µM (inactive)
4 | CCOC(=O)Cc1csc(N/N=C2\C(=O)Nc3ccccc32)n1 | 56.9 µM (inactive) | 17.4 µM (inactive) | 19 µM (inactive) | 41.7 µM (inactive) | 28.4 µM (inactive) | > 100 µM (inactive) | 48.8 µM (inactive) | > 100 µM (inactive) | 40.6 µM (inactive) | 74.5 µM (inactive) | 32.4 µM (inactive) | 19.7 µM (inactive) | 33.4 µM (inactive) | 38.7 µM (inactive) | 69.5 µM (inactive) | 32.5 µM (inactive) | – | 76.7 µM (inactive) | 36.5 µM (inactive) | 56.1 µM (inactive)
5 | CCOP(=O)(OCC)OC1CC(n2cc(C)c(=O)n(C)c2=O)OC1CO[Si](C)(C)C(C)(C)C (centres undefined) | > 100 µM (inactive) | > 100 µM (inactive) | 32.1 µM (inactive) | > 100 µM (inactive) | 61.2 µM (inactive) | > 100 µM (inactive) | > 100 µM (inactive) | > 100 µM (inactive) | > 100 µM (inactive) | > 100 µM (inactive) | > 100 µM (inactive) | 18.1 µM (inactive) | 58.3 µM (inactive) | 67 µM (inactive) | > 100 µM (inactive) | > 100 µM (inactive) | – | > 100 µM (inactive) | 25.2 µM (inactive) | 46.6 µM (inactive)
6 | CCOC(=O)/C=C(\C(=O)OCC)n1ccc(=O)n(Cc2cnnn2COCCOC(C)=O)c1=O | 23.9 µM (inactive) | 16.8 µM (inactive) | 1.61 µM (inactive) | 15.1 µM (inactive) | 1.61 µM (inactive) | 5.64 µM (inactive) | 12.2 µM (inactive) | 15.6 µM (inactive) | 12.1 µM (inactive) | 16.2 µM (inactive) | 3.79 µM (inactive) | 0.598 µM (active) | 14.2 µM (inactive) | 28.7 µM (inactive) | 3.73 µM (inactive) | 2.97 µM (inactive) | – | 18.8 µM (inactive) | 8.15 µM (inactive) | 20.5 µM (inactive)
7 | CSCCC(NC(=O)OC(C)(C)C)C(=O)NCCNc1ccc(NCCNC(=O)C(CCSC)NC(=O)OC(C)(C)C)c2c1C(=O)c1ccccc1C2=O (centres undefined) | 6.7 µM (inactive) | 3.14 µM (inactive) | 1.39 µM (inactive) | 3.85 µM (inactive) | 3.56 µM (inactive) | 3.38 µM (inactive) | 7.74 µM (inactive) | 5.74 µM (inactive) | 1.96 µM (inactive) | 5.65 µM (inactive) | 7.13 µM (inactive) | 3.01 µM (inactive) | 5.85 µM (inactive) | 7.57 µM (inactive) | 5.82 µM (inactive) | 4.75 µM (inactive) | – | 4.79 µM (inactive) | 3.01 µM (inactive) | 2.39 µM (inactive)
8 | Cc1ccc(N(C)S(=O)(=O)c2ccc([N+](=O)[O-])cc2)cc1 | > 100 µM (inactive) | > 100 µM (inactive) | > 100 µM (inactive) | 49.8 µM (inactive) | > 100 µM (inactive) | > 100 µM (inactive) | > 100 µM (inactive) | > 100 µM (inactive) | > 100 µM (inactive) | > 100 µM (inactive) | > 100 µM (inactive) | 54.6 µM (inactive) | 74 µM (inactive) | 92.3 µM (inactive) | > 100 µM (inactive) | > 100 µM (inactive) | – | > 100 µM (inactive) | 59 µM (inactive) | > 100 µM (inactive)
9 | CC(C)(C)OC(=O)NC1CC=CCC1NC(=O)OC(C)(C)C (centres undefined) | > 100 µM (inactive) | > 100 µM (inactive) | > 100 µM (inactive) | > 100 µM (inactive) | > 100 µM (inactive) | > 100 µM (inactive) | > 100 µM (inactive) | > 100 µM (inactive) | > 100 µM (inactive) | > 100 µM (inactive) | > 100 µM (inactive) | > 100 µM (inactive) | > 100 µM (inactive) | > 100 µM (inactive) | > 100 µM (inactive) | > 100 µM (inactive) | – | > 100 µM (inactive) | > 100 µM (inactive) | > 100 µM (inactive)
10 | O=C(Nc1c(C(F)(F)F)cc(-c2ccccc2)[nH]c1=O)N1CCOCC1 | 47.8 µM (inactive) | > 100 µM (inactive) | 89.1 µM (inactive) | > 100 µM (inactive) | 46.3 µM (inactive) | > 100 µM (inactive) | > 100 µM (inactive) | > 100 µM (inactive) | > 100 µM (inactive) | 78.3 µM (inactive) | > 100 µM (inactive) | 26.9 µM (inactive) | > 100 µM (inactive) | 62.1 µM (inactive) | > 100 µM (inactive) | > 100 µM (inactive) | – | > 100 µM (inactive) | 26.9 µM (inactive) | > 100 µM (inactive)
11 | COC1=NN2C(OC)(c3ccccc3)c3c(-c4ccccc4)sc(-c4ccccc4)c3C2(c2ccccc2)S1 (centres undefined) | – | > 100 µM (inactive) | > 100 µM (inactive) | > 10 µM (inactive) | > 100 µM (inactive) | > 100 µM (inactive) | > 100 µM (inactive) | > 100 µM (inactive) | > 100 µM (inactive) | > 100 µM (inactive) | > 100 µM (inactive) | > 100 µM (inactive) | > 100 µM (inactive) | > 100 µM (inactive) | > 100 µM (inactive) | > 100 µM (inactive) | > 100 µM (inactive) | – | – | –
